Source: publication PMC9643474, “The mycotoxin viriditoxin induces leukemia- and lymphoma-specific apoptosis by targeting mitochondrial metabolism” (Cell Death & Disease, 2022)

Target: T1, complex I (Bos taurus, UniProt P03887+P17694+P42026)
T1 construct: gene NDUFS2; whole respiratory complex I (about 45 subunits) in isolated bovine heart mitochondria, kit assay
Test: MitoCheck complex activity assay, isolated bovine heart mitochondria
Type: biochemical
Settings: 15 min, decreased complex I activity, binding site unknown

T1 sequence (P17694 34-463): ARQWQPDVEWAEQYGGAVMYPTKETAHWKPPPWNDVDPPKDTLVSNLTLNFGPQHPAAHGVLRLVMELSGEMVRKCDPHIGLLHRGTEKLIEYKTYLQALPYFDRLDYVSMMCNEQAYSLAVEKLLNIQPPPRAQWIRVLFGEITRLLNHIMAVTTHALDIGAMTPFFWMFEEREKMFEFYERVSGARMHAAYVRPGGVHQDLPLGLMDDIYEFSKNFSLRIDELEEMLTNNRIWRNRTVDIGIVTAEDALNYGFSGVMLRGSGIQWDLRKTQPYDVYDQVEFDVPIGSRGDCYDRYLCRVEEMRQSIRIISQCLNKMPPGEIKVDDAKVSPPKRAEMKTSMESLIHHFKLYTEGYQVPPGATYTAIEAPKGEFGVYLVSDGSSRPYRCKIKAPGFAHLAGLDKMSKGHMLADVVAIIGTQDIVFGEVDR
T1 sequence (P42026 38-216): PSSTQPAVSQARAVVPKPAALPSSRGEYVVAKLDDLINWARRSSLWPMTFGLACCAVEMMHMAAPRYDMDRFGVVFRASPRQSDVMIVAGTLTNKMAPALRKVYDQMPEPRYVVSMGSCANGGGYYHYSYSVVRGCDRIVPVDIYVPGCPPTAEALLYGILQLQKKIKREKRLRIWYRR
T1 sequence (P03887 whole entry): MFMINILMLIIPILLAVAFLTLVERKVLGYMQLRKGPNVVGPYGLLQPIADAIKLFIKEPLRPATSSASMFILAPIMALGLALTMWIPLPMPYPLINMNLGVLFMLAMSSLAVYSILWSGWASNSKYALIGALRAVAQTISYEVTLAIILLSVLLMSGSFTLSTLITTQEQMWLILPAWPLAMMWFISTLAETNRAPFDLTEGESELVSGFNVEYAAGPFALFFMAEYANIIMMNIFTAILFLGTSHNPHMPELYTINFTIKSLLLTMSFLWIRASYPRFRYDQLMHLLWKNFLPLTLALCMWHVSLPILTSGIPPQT

COC(=O)C[C@@H]1Cc2cc3c(-c4c(OC)cc(O)c5c(O)c6c(cc45)C[C@@H](CC(=O)OC)OC6=O)c(OC)cc(O)c3c(O)c2C(=O)O1 [viriditoxin]
activity, % of DMSO control at 10 μM: we could observe a decreased activity upon treatment with VDT for complex I
